Assay: hydrogen peroxide decomposition assay of catalase recovered from PLGA matrices
Format: biochemical
Conditions: catalase removed from PLGA matrices by degradation of the polymer; processed in supercritical CO2 at 45° C. and 200 bar, 30 minutes
Method: In a specific example of the use of the invention particles of the protein catalase (ca mean diameter 50 micron) are mixed with the biodegradable polymer poly(DL-lactide-co-glycolide) (PLGA) as per example 3, in the presence of super critical CO2 at 45° C. and 200 bar. After agitation for 30 minutes, the autoclave was depressurized leading to solid dispersions of a monolith form, in which catalase particles are intimately mixed with the biodegradable polymer. FIGS. 3a) and 3b) are scanning electron microscopy images at respective higher and lower magnifications of 10 micron (particles and micropores visible) and 50 micron (particles embedded in “channels”).
Removal of the catalase from the matrices by degradation of the polymer enabled the activity of the enzyme to be quantified using a hydrogen peroxide decomposition assay.

catalase
activity of the enzyme after SCF processing: lost no appreciable activity

From patent publication US6670407B2, “Biofunctional polymers prepared in supercritical fluid” (University of Nottingham, priority 1997, dated 2003)
